Tests used:
ovariectomized mice [1] = assay: Serum E2, LH and FSH of ovariectomized mice by ELISA; assay type: in vivo, female ICR mice; conditions: 1 mg/kg, one time per day, 14 days, M ± SD
Experimental: (§1) 3.1 Healthy female ICR mice weighted 20±2 g were anaesthetized by ether and fixed in the abdomen. Bilateral ovaries of the mice were extirpated via back incision below the costal bone. The wounds were stitched and the mice were cultured according to conventional methods. After the wounds were cured, vaginal smear examination was performed, one time per day for five consecutive days, to ensure the ovaries were completely extirpated. The mice in the dioestrum (observations of vaginal smears under microscope found a lot of polynuclear leucocytes and few epithelial cells) in the five consecutive days were qualified mice. 48 mice were randomly divided into 6 groups with each group 8 mice, that is, a model group (be administered with equal volume of normal saline), a diethyl stilbestrol group (1 mg/kg), J01 groups (144 mg/kg, 288 mg/kg), J02 groups (180 mg/kg, 360 mg/kg). Another 6 mice with bilateral ovaries were selected as a control group (be administered with equal volume of normal saline). The mice were administered with corresponding drugs, one time per day, for 14 consecutive days. After one hour from the last injection, blood was sampled from the orbital venous plexus, and centrifuged for 10 min at 3000 rpm. The serum was separated and the E2, LH and FSH values thereof were measured using ELISA method. Thereafter, the abdominal cavity was cut open quickly and thymus, spleen, and uterus were separated and weighed to calculate the coefficients of the thymus, spleen, and uterus.
(§2) The mice were administered with corresponding drugs, 5 mL/kg, one time per day, for 14 consecutive days.
(§3) Viscera index: coefficients of the thymus, spleen, and uterus. Viscera index=organ weight/mice body weight*10. Serum index: E2 (estradiol), LH (luteinizing hormone), FSH (follicle stimulating hormone).
(§4) The difference between groups of the measured data is examined based on ANOVA T-TEST using SPSS10.0.

ovariectomized mice [2] = assay: Viscera index (thymus, spleen, uterus coefficients) of ovariectomized mice; assay type: in vivo, female ICR mice; conditions: 1 mg/kg, one time per day, 14 days, M ± SD
Experimental: as §1, §2, §3, §4

## CC/C(=C(/CC)c1ccc(O)cc1)c1ccc(O)cc1 [Diethylstilbestrol]
Ovariectomized mice [1]
  E2 (Estrogen): 113.81 ± 33.85 pg/mL
  FSH (Follicle Stimulating Hormone): 22.54 ± 6.97 ng/mL
  LH (luteinizing hormone): 31.33 ± 4.51 ng/mL
Ovariectomized mice [2]
  Spleen index: 66.67 ± 16.93 mg/10 g
  Thymus index: 32.99 ± 8.11 mg/10 g
  Uterus index: 62.67 ± 11.89 mg/10 g
